Data from patent US20100029613A1, “TREATMENT AND PREVENTION OF EPILEPSY” (University of Rochester, priority 2004, published 2010).
Values joined by “and” are separate entries in the source; they are usually repeats but may differ in a detail not shown here. Equal values may be shown once. Read-outs that look alike come from different tables or passages of the source.

Columns and labels:
[1] = tested on: cultured rat cortical astrocytes; assay: ATP-induced glutamate release, enzymatic fluorescence assay; type: cell-based; conditions: for glutamate release triggered by ATP agonists: 100 μM
[2] = tested on: glutamate-permeable channel in astrocytes in hippocampal slices; assay: Whole-cell recording of ATP-induced inward current in astrocytes in hippocampal slices; type: cell-based, rat; conditions: for effect on ATP-induced inward current: 10 mM intracellular BAPTA, 100 μM NPPB in bath
[3] = tested on: cultured rat cortical astrocytes; assay: Hypotonicity (swelling)-induced glutamate release, enzymatic fluorescence assay; type: cell-based
[4] = tested on: PDSs in hippocampal slices evoked by 4-AP; assay: 4-AP-evoked PDSs, field potential recording in hippocampal slices; type: cell-based, rat; conditions: for frequency and amplitude of PDSs: bath applied to slices with 4-AP induced seizures, NPPB 100 μM, FFA 100 μM
[5] = tested on: cultured astrocytes; assay: Astrocyte cell volume, confocal x-z line scans of calcein-loaded cultures; type: cell-based, rat
[6] = tested on: glutamate-permeable channel in cultured astrocytes; assay: Whole-cell recording of ATP-induced current in cultured astrocytes; type: cell-based, rat; conditions: for effect on ATP-induced current: NaCl outside, BAPTA 10 mM in pipette, NPPB 100 μM, FFA 100 μM, gossypol 10 μM, OxATP 300 μM 1 h
[7] = tested on: 4-AP induced astrocytic Ca^2+ signaling in cortex; assay: In vivo two-photon imaging of 4-AP induced astrocytic Ca^2+ signaling; design: species or system mice
[8] = tested on: ATP-induced Ca^2+ waves in cortical astrocytes; assay: In vivo two-photon imaging of ATP-induced astrocytic Ca^2+ waves; design: species or system mice
[9] = tested on: interneurons in hippocampal slices; type: cell-based, rat
[10] = tested on: cultured astrocytes; type: cell-based, rat
[11] = tested on: astrocytes in suspension; type: cell-based, rat
[12] = tested on: cultured astrocytes from Cx43 KO mice; type: cell-based
[13] = tested on: cultured astrocytes; assay: HPLC analysis of amino acid release from perfused astrocyte cultures; type: cell-based, rat
[14] = tested on: astrocytes in hippocampal slices; type: cell-based, rat
[15] = tested on: astrocytic Ca^2+ signaling in hippocampal slices; type: cell-based, rat
[16] = tested on: cultured astrocytes; assay: Ca^2+ imaging in cultured astrocytes; type: cell-based, rat; conditions: absence of co-cultured neurons
[17] = tested on: hippocampus of adult rat; conditions: in vivo
[18] = tested on: PDSs in hippocampal slices; assay: PDSs across all experimental seizure models (4-AP, Mg^2+-free, bicuculline, penicillin, Ca^2+-free); type: cell-based, rat
[19] = 214 mOsM, same concentrations as for ATP-induced release
[20] = valproate 450 mg/kg, gabapentin 200 mg/kg, phenyloin 100 mg/kg i.p., 5-30 min after 4-AP
[21] = valproate 450 mg/kg, gabapentin 200 mg/kg, phenyloin 100 mg/kg i.p., iontophoretic ATP, non-epileptic mice
[22] = NPPB 100 μM, FFA 100 μM, gossypol 10 μM

CCOc1ccc(Nc2ccc(/C(=C3C=C/C(=[N+](/CC)Cc4cccc(S(=O)(=O)[O-])c4)C=C/3C)c3ccc(N(CC)Cc4cccc(S(=O)(=O)[O-])c4)cc3C)cc2)cc1.[Na+] [BBG, Brilliant Blue G]
ATP-induced glutamate release ([1]; BBG 1 μM): 106.4±19.1 % of control | amplitude of the ATP-induced inward current ([2]; BBG 1 μM, P=0.8): 106.8±22.0%

C/C=C(/C)C(=O)O[C@H]1C(C)=C2[C@H]([C@@H]1OC(=O)CCCCCCC)[C@@](C)(OC(C)=O)C[C@H](OC(=O)CCC)[C@@]1(O)[C@H]2OC(=O)[C@@]1(C)O [thapsigargin]
effect on ATP-induced glutamate release [1]: attenuated the release | effect on glutamate release evoked by hypoosmotic challenge [3, 19]: failed to affect

Nc1c(S(=O)(=O)O)cc(Nc2ccc(Nc3nc(Cl)nc(Nc4cccc(S(=O)(=O)O)c4)n3)c(S(=O)(=O)O)c2)c2c1C(=O)c1ccccc1C2=O [Reactive Blue 2]
effect on ATP-induced glutamate release [1]: blocked the release

NC(CCCP(=O)(O)O)C(=O)O (stereo not shown) [APV, 2-amino-5-phosphonovalerate]
frequency and amplitude of PDSs compared with TTX alone [4]: highly significant reduction

O=c1ccn([C@@H]2O[C@H](COP(=O)(O)OP(=O)(O)OP(=O)(O)O)[C@@H](O)[C@H]2O)c(=O)[nH]1 [UTP]
increase in vertical sectional areas (cell swelling) [5]: 5.75±0.57% | glutamate release triggered by ATP agonists [1]: roughly equivalent to that of ATP

Nc1ncnc2c1ncn2[C@@H](C=O)O[C@@H](C=O)COP(=O)(O)OP(=O)(O)OP(=O)(O)O [OxATP, oxidized ATP]
effect on ATP-induced glutamate release [1]: did not significantly reduce | effect on ATP-induced current [6]: no significant effect

Nc1ncnc2c1ncn2[C@@H]1O[C@H](COP(=O)(O)CP(=O)(O)OP(=O)(O)O)[C@@H](O)[C@H]1O [αβ-meATP]
glutamate release triggered by ATP agonists [1]: without effect

CCCC(CCC)C(=O)O [valproate]
4-AP-induced Ca^2+ signaling reduced by [7, 20]: 69.7% | ATP-evoked astrocytic Ca^2+ signaling (Ca^2+ waves) depressed by [8, 21]: 64.9%

O=C(O)CN(CC(=O)O)c1ccccc1OCCOc1ccccc1N(CC(=O)O)CC(=O)O [BAPTA, 1,2-bis (2-aminophenoxy) Ethane-N,N,N′,N′-tetraacetic acid]
effect on glutamate release evoked by hypoosmotic challenge [3, 19]: failed to affect | effect on ATP-induced current [6]: blocked | effect on ATP-induced inward current [2]: attenuated

CO/C1=C\C(C)=C\[C@@H](C)[C@@H](O)[C@@H](C)C/C(C)=C/C=C/[C@H](OC)[C@@H]([C@@H](C)[C@@H](O)[C@H](C)[C@@]2(O)C[C@@H](O)[C@H](C)[C@@H](C(C)C)O2)OC1=O [bafilomycin A1]
effect on ATP-induced glutamate release [1]: no effect | effect on glutamate release evoked by hypoosmotic challenge [3]: no effect | frequency of inhibitory postsynaptic currents [9]: 0.2 per sec

methionine sulfoximine [MSO]
effect on ATP-induced glutamate release [1]: increased glutamate release | effect on glutamate release evoked by hypoosmotic challenge [3]: increased glutamate release

O=C1NC(=O)C(c2ccccc2)(c2ccccc2)N1 [phenyloin]
4-AP-induced Ca^2+ signaling reduced by [7, 20]: 45.5% | ATP-evoked astrocytic Ca^2+ signaling (Ca^2+ waves) depressed by [8, 21]: 23.8%

N[C@H](C(=O)O)[C@H](OCc1ccccc1)C(=O)O [TBOA, D,L-threo-beta-benzyloxyaspartate]
frequency and amplitude of PDSs compared with TTX alone [4]: increased the frequency and amplitude of PDSs significantly | effect on ATP-induced glutamate release [1]: without effect | effect on glutamate release evoked by hypoosmotic challenge [3, 19]: without effect

Nc1ncnc2c1ncn2[C@@H]1O[C@H](COP(=O)(O)OP(=O)(O)OP(=O)(O)O)[C@@H](O)[C@H]1O [ATP]
increase in vertical sectional areas (cell swelling) [5]: 5.19±0.66% | volume increase [5]: 5.2% | decrease in fluorescence-dilution emission [10]: 9.6±1.3% | increase in astrocytic cell volume [11]: 3.5±0.6% and 3.0±0.5% | glutamate release [1]: 2.49±0.21 fmol glutamate per cell | glutamate release [12]: 3.02 fmol per cell | glutamate release relative to astrocytes from wild-type littermates [12]: 90.7% | increase in glutamate release [13]: 2- to 5 fold | ATP-triggered inward current, amplitude [6]: 250±33 pA | ATP-triggered inward current, average amplitude [6]: 177±37 pA and 138±36 pA | duration of the fluo-4 signal increase [14]: 8.7 ± 1.4 s | increase in the fluo-4 signal over baseline [14]: 131±13% | ATP-induced inward current [2]: 254±31 pA

Nc1ccncc1 [4-AP, 4-aminopyridine]
astrocytic Ca^2+ signaling (Ca^2+ oscillations) [15]: potently initiated astrocytic Ca^2+ signaling | Ca^2+ signaling in cultured astrocytes [16]: promptly induced Ca^2+ signaling | extracellular concentration of glutamate [17]: 6 to 10 µM | increase in release of amino acid osmolytes (glutamate, aspartate, glutamine, taurine) [17]: 3-8 fold

NC1=N[C@H](O)[C@H]2[C@H]3O[C@]4(O)O[C@@H]([C@@H](O)[C@@]2(N1)[C@@H]4O)[C@]3(O)CO [TTX, tetrodotoxin]
decrease of relative frequency of PDSs compared with 4-AP alone [4]: 32±8% | frequency and amplitude of 4-AP induced PDSs [4]: only slightly decreased | frequency and amplitude of PDSs reduced by [4]: 20-35% | frequency of PDSs reduced to [18]: 70-90 % of total | frequency or amplitude of astrocytic Ca^2+ oscillations [15]: did not reduce

COc1ccc2c(c1)c(CC(=O)O)c(C)n2C(=O)c1ccc(Cl)cc1 [Indomethacin]
effect on ATP-induced glutamate release [1]: did not reduce

2′,3′-O-(4-benzoylbenzoyl)-ATP [Bz-ATP]
increase in vertical sectional areas (cell swelling) ([5]; 100 μM agonist, 1 min): 1.35±1.05% | glutamate release triggered by ATP agonists [1]: without effect

O=C(O)c1cc([N+](=O)[O-])ccc1NCCCc1ccccc1 [NPPB, 5-nitro-2-(3-phenylpropylamino) benzoic acid]
frequency and amplitude of PDSs [4]: markedly reduced | glutamate release in presence of anion channel blocker [1, 22]: 0.22±0.14 fmol per cell | reduction of glutamate release ([1]; after exposure to 10 μM ATP, NPPB 100 μM): 72.6±3.9% | effect on glutamate release evoked by hypoosmotic challenge [3, 19]: decreased | effect on glutamate, aspartate, glutamine and taurine release evoked by ATP [13]: inhibited | effect on ATP-induced current [6]: inhibited ATP-induced current | effect on ATP-induced inward current [2]: attenuated

CC(=O)OCOC(=O)CN(CC(=O)OCOC(C)=O)c1ccccc1OCCOc1ccccc1N(CC(=O)OCOC(C)=O)CC(=O)OCOC(C)=O [BAPTA/AM, 1,2-bis(2-aminophenoxy)ethane-N,N,N′,N′-tetraacetate (BAPTA)/AM]
ATP-induced increase in vertical sectional areas attenuated to ([5]; ATP 100 μM, BAPTA/AM 20 μM preloaded): 1.63±0.73% | effect on ATP-induced glutamate release [1]: attenuated the release | effect on glutamate, aspartate, glutamine and taurine release evoked by ATP [13]: inhibited

NCC1(CC(=O)O)CCCCC1 [gabapentin]
4-AP-induced Ca^2+ signaling reduced by ([7]; mouse, in vivo): 55.6% | ATP-evoked astrocytic Ca^2+ signaling (Ca^2+ waves) depressed by ([8]; mouse, in vivo): 53.8%

N#Cc1cc2c(cc1[N+](=O)[O-])=NC(=O)C(=O)N=2 [CNQX, 6-cyano-7-nitroquinoxaline-2,3-dione]
frequency and amplitude of PDSs compared with TTX alone [4]: significant decrease

C[C@@](N)(C(=O)O)c1ccc(C(=O)O)cc1 [(S)-MCPG, (S)-Alpha-methyl-4-carboxy-phenylglycine]
frequency and amplitude of PDSs compared with TTX alone [4]: failed to reduce

O=C(O)c1ccccc1Nc1cccc(C(F)(F)F)c1 [FFA, flufenamic acid]
frequency and amplitude of PDSs [4]: markedly reduced | glutamate release in presence of anion channel blocker [1, 22]: 0.00±0.00 fmol per cell | effect on glutamate release evoked by hypoosmotic challenge [3, 19]: decreased | effect on ATP-induced current [6]: inhibited ATP-induced current

Cc1cc2c(C(C)C)c(O)c(O)c(C=O)c2c(O)c1-c1c(C)cc2c(C(C)C)c(O)c(O)c(C=O)c2c1O [gossypol]
glutamate release in presence of anion channel blocker [1]: 0.07±0.07 fmol per cell
